Patent publication US20230257351A1, “SUBSTITUTED N-[…] HAVING P2X4 RECEPTOR ANTAGONISTIC ACTIVITY” (Bayer Aktiengesellschaft, priority 2020, published 2023)

Target: T1, human P2X4 (Homo sapiens, UniProt Q99571)
T1 construct: expressed in transfected cells
T1 sequence (Q99571 1-388): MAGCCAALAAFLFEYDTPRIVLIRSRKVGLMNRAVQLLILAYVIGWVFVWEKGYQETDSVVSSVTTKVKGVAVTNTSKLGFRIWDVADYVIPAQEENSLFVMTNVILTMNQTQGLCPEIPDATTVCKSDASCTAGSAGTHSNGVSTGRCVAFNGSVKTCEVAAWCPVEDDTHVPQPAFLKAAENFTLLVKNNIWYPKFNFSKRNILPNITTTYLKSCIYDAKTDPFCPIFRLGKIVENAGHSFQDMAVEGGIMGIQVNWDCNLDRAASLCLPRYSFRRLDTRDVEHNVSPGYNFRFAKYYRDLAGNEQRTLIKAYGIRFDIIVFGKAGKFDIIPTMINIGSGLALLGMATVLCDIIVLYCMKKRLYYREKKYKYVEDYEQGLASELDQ
Assay: Human P2X4 HEK Cell FLIPR Assay
Format: cell-based
Conditions: HEK293 stably expressing human P2X4, agonist Bz-ATP 3 μM (EC80)
Method in brief: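 HEK293 cells stably expressing human P2X4 were loaded with Fluo8-AM (30 min, 37 °C, HBSS/HEPES pH 7.4 with probenecid), then preincubated 30 min at room temperature with compound, 25 μM–1 nM final, 0.5% DMSO. Bz-ATP-evoked calcium fluorescence was read on FLIPR; data were normalized to agonist control and given a four-parameter fit for IC50.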

Human P2X4 HEK Cells (FLIPR Assay) avg Efficacy: 95%
IC50 (read-out: Human P2X4 HEK Cells (FLIPR Assay) avg IC50): 411 nM
SMILES: CC(=O)N(c1ccc(F)c(F)c1)c1cc(NC(=O)Cc2ccc(F)cc2Cl)ccn1 [Example 68, N-{4-[2-(2-chloro-4-fluorophenyl)acetamido]pyridin-2-yl}-N-(3,4-difluorophenyl)acetamide]
